The values that follow come from US10253341B2, “Mutant sugar isomerase with improved activity, derived from E. coli, and production of L-gulose using the same” (priority 2014, dated 2019).

Common to all, as to assay type: biochemical
In experiment [1] the target is Escherichia coli O157:H7 sugar isomerase (EcSI, SEQ ID NO: 3) variant M92L (Escherichia coli, UniProt A0A6M7H989, M92L).
Experiment [2] addresses Escherichia coli O157:H7 sugar isomerase (EcSI, SEQ ID NO: 3) variant I112C T56M M92L (Escherichia coli, UniProt A0A6M7H989, I112C/M92L/T56M).
Experiment [3] concerns the target Escherichia coli O157:H7 sugar isomerase (EcSI, SEQ ID NO: 3) variant T56M (Escherichia coli, UniProt A0A6M7H989, T56M).
Experiment [4] deals with Escherichia coli O157:H7 sugar isomerase (EcSI, SEQ ID NO: 3) variant I112C (Escherichia coli, UniProt A0A6M7H989, I112C).
Experiment [5] concerns the target Escherichia coli O157:H7 sugar isomerase (EcSI), wild type, SEQ ID NO: 3 (Escherichia coli, UniProt A0A6M7H989).
In experiment [6] the target is Escherichia coli O157:H7 sugar isomerase (EcSI, SEQ ID NO: 3) variant I112C T56M (Escherichia coli, UniProt A0A6M7H989, I112C/T56M).

On to `OCC1(O)OC[C@H](O)[C@@H](O)[C@@H]1O` (stereo partly drawn) [L-sorbose], for which the kcat worked out at 105 S^−1 in experiment [1]; 245 S^−1 in experiment [2]; 101 S^−1 in experiment [3]; 88 S^−1 in experiment [4]; 84 S^−1 in experiment [5]; 144 S^−1 in experiment [6]. The kcat/Km is reported as 0.70 mM^−1S^−1 in experiment [1]; 2.28 mM^−1S^−1 in experiment [2]; 0.85 mM^−1S^−1 in experiment [3]; 0.92 mM^−1S^−1 in experiment [4]; 0.63 mM^−1S^−1 in experiment [5]; 1.53 mM^−1S^−1 in experiment [6].
